Like-named read-outs stand apart in the source and are kept apart here.
Tests used:
[1] = Comparison of process of the invention with maceration in oil, UV/VIS spectra; format: physicochemical
Experimental: (§1) Spectrophotometric analyses were performed using an ONDA UV/VIS Spectrophotometer, Model UV-31 SCAN. The oil samples were suitably diluted in RPE ethanol supplied by Carlo Erba. Scans were performed in the wavelength range of 600 nm and 300 nm, with a step size of 1 nm, using optical glass cuvettes.
(§2) In order to compare the efficacy of the method of the invention with the traditional method of enrichment by maceration in oil, enrichment of vegetable oils was carried out using both methods. Subsequently, equal amounts of oil obtained using the two methods were solubilised in a suitable solvent, respecting the same dilution ratio, and the resulting solutions were subjected to chromatographic and spectrophotometric analysis.

[2] = Concentration of bioactive compound in oil enriched by the process of the invention; format: physicochemical
Experimental: as §1
(§3) HPLC analyses were performed using an Agilent HPLC Chromatograph, 1100 Series, equipped with an Agilent Technologies 1200 Series DAD UV/VIS detector, using an Agilent Eclipse plus 95 Å C18 Column, (100 mm—4.6 mm, 3.5 μm). Acetonitrile, Methanol, Water and Formic Acid for HPLC supplied by Sigma-Aldrich were used for the mobile phase.
At the end of the process, 5 mL of enriched oil was recovered with a concentration expressed as mass of lycopene per mass of oil of 35 mg/100 g, a concentration measured at 25° C. after centrifuging the oil for 15 minutes at 10,000 RPM.

[3] = traditional preparation techniques, literature, cited from earlier work
[4] = Comparison of process of the invention with maceration in oil, HPLC chromatograms; format: physicochemical; conditions: Argan oil; Example 1 versus maceration of pure lycopene powder in oil
Experimental: as §3, §2

SMILES: COc1cc(CNC(=O)CCCC/C=C/C(C)C)ccc1O [capsaicin]
- capsaicin concentration (absorbance at 280 nm), innovative methodology versus traditional methodology ([1]; sunflower oil, Example 3 versus maceration): approximately 6 times
- concentration expressed as mass of Capsaicin on mass of oil ([2]; deodorised sunflower oil enriched per Example 3 (R134a, 35° C., 7.66 atm, 90 minutes), measured at 25° C. after centrifugation 15 minutes at 10,000 RPM): 61.2 mg/100 g
- maximum concentration in vegetable oil ([3]; listed as capsicin): ≤ 10 mg per 100 g of oil
- maximum concentration in vegetable oil [3]: no more than 10 mg per 100 g of oil

SMILES: COc1cc(/C=C/C(=O)CC(=O)/C=C/c2ccc(O)c(OC)c2)ccc1O [curcumin]
- concentration expressed as mass of Curcumin on mass of oil ([2]; wheat germ oil enriched per Example 2 (R1234ze, 28° C., 4.5 atm, 355 minutes), measured at 25° C. after centrifugation 15 minutes at 10,000 RPM): 1420 mg/100 g

SMILES: CC(C)=CCC/C(C)=C/C=C/C(C)=C/C=C/C(C)=C/C=C/C=C(C)/C=C/C=C(C)/C=C/C=C(\C)CCC=C(C)C [lycopene]
- lycopene concentration (absorbance at 502 nm), process of the invention versus traditional methodology ([1]; Argan oil, Example 1 versus maceration of pure lycopene powder in oil): approximately 3.3 times
- concentration expressed as mass of lycopene per mass of oil ([2]; refined argan oil enriched per Example 1 (R1234ze, 28° C., 4.5 atm, 120 minutes), measured at 25° C. after centrifuging 15 minutes at 10,000 RPM): 35 mg/100 g
- lycopene concentration (HPLC peak area), process of the invention versus conventional method [4]: about 3.3 times
- maximum concentration in vegetable oil [3]: 7-8 mg per 100 g of oil

From patent US20260206786A1, “PROCEDURE FOR PREPARING COMPOSITIONS WITH A HIGH CONTENT OF BIOACTIVE COMPOUNDS” (I.T.P. S.R.L. INNOVATION & TECHNOLOGY PROVIDER, priority 2022, published 2026)
